Laboratory results published in patent US20060223819A1, “Quinoline Derivatives as NK-3 Antagonists” (GlaxoSmithKline S.P.A. & Laboratoire, priority 2000, published 2006).
Where a name gives a salt, the structure may show the parent alone.

| SMILES | melting point |
| --- | --- |
| C[C@H](NC(=O)c1c(CN2CCN(CCO)C(=O)C2)c(-c2ccccc2)nc2ccccc12)C1CCCCC1 (as salt: hydrochloride) [Example 37, 3-[4-(2-Hydroxyethyl)-3-oxopiperazin-1-ylmethyl]-2-phenylquinoline-4-carboxylic acid ((S)-1-cyclohexyl-ethyl)-amide dihydrochloride] | 171 to 173 °C |
| C[C@H](NC(=O)c1c(CN2CCNCC2)c(-c2ccccc2)nc2ccccc12)c1cccc(O)c1 [Example 4, 2-Phenyl-3-piperazin-1-ylmethyl-quinoline-4-carboxylic acid [(S)-1-(3-hydroxy-phenyl)-ethyl]-amide] | 240 to 244 °C |
| C[C@H](NC(=O)c1c(CN2CCNCC2)c(-c2ccccc2)nc2ccc(F)cc12)C1CCCCC1 [Example 24, 6-Fluoro-2-phenyl-3-piperazin-1-ylmethylquinoline-4-carboxylic acid ((S)-1-cyclohexylethyl)-amide] | 154 to 158 °C |
| CCOC(=O)C(CN1CCN(Cc2c(-c3ccccc3)nc3ccccc3c2C(=O)N[C@@H](C)C2CCCCC2)CC1)c1ccccc1 (stereo partly drawn) [Example 20, 3-{4-[4-((S)-1-Cyclohexyl-ethylcarbamoyl)-2-phenyl-quinolin-3-ylmethyl]-piperazin-1-yl}-2-phenyl-propionic acid ethyl ester] | 90 to 91 °C |
| C[C@H](NC(=O)c1c(CN2CCNCC2)c(-c2ccccc2)nc2cc3c(cc12)OCCO3)C1CCCCC1 [Example 9, 7-Phenyl-8-piperazin-1-ylmethyl-2,3-dihydro-[1,4]dioxino[2,3-g]quinoline-9-carboxylic acid ((S)-1-cyclohexyl-ethyl)-amide] | 135 to 137 °C |
| C[C@H](NC(=O)c1c(CN2CCN(CC(N)=O)CC2)c(-c2ccccc2)nc2ccccc12)C1CCCCC1 [Example 19, 3-(4-Carbamoylmethyl-piperazin-1-ylmethyl)-2-phenyl-quinoline-4-carboxylic acid ((S)-1-cyclohexyl-ethyl)-amide] | 125 to 130 °C |
| COc1cccc([C@H](C)NC(=O)c2c(CN3CCNCC3)c(-c3ccccc3)nc3ccccc23)c1 [Example 3, 2-Phenyl-3-piperazin-1-ylmethyl-quinoline-4-carboxylic acid[(S)-1-(3-methoxy-phenyl)-ethyl]-amide] | 147 to 153 °C |
| COc1ccc([C@H](C)NC(=O)c2c(CN3CCNCC3)c(-c3ccccc3)nc3ccccc23)cc1 [Example 2, 2-Phenyl-3-piperazin-1-ylmethyl-quinoline-4-carboxylic acid[(S)-1-(4-methoxy-phenyl)-ethyl]-amide] | 109 to 111 °C |
| C[C@H](NC(=O)c1c(CN2CCN(Cc3ccccc3)C(=O)C2)c(-c2ccccc2)nc2ccccc12)C1CCCCC1 [Example 33, 3-(4-Benzyl-3-oxopiperazin-1-ylmethyl)-2-phenylquinoline-4-carboxylic acid ((S)-1-cyclohexylethyl)-amide] | 181 °C |
| CC(C)[C@H](NC(=O)c1c(CN2CCNC(=O)C2)c(-c2ccccc2)nc2ccccc12)c1ccccc1 [Example 42, 3-(3-Oxo-piperazin-1-ylmethyl)-2-phenyl-quinoline-4-carboxylic acid ((S)-2-methyl-1-phenyl-propyl)-amide] | 137 °C |
| CC(C)[C@H](NC(=O)c1c(CN2CCN(/C(=C/[N+](=O)[O-])N3CCCC3)CC2)c(-c2ccccc2)nc2ccccc12)c1ccccc1 [Example 13, 3-[4-(2-Nitro-1-pyrrolidin-1-yl-vinyl)-piperazin-1-ylmethyl]-2-phenyl-quinoline-4-carboxylic acid ((S)-2-methyl-1-phenyl-propyl)-amide] | 170 to 175 °C |
| COc1cc2nc(-c3ccccc3)c(CN3CCNCC3)c(C(=O)N[C@@H](C)C3CCCCC3)c2cc1OC [Example 10, 6,7-Dimethoxy-2-phenyl-3-piperazin-1-ylmethyl-quinoline-4-carboxylic acid ((S)-1-cyclohexyl-ethyl)-amide] | 130 to 132 °C |
| C[C@H](NC(=O)c1c(CN2CCN(CCN3CCCCC3)C(=O)C2)c(-c2ccccc2)nc2ccccc12)C1CCCCC1 [Example 43, 3-[3-Oxo-4-(2-piperidin-1-ylethyl)piperazin-1-ylmethyl]-2-phenylquinoline-4-carboxylic acid ((S)-1-cyclohexylethyl)amide] | 160 °C |
| C[C@H](NC(=O)c1c(CN2CCN(CC(C(=O)O)c3ccccc3)CC2)c(-c2ccccc2)nc2ccccc12)C1CCCCC1 (stereo partly drawn) [Example 22, 3-{4-[4-((S)-1-Cyclohexyl-ethylcarbamoyl)-2-phenyl-quinolin-3-ylmethyl]-piperazin-1-yl}-2-phenyl-propionic acid] | 144 to 145 °C |
| C[C@H](NC(=O)c1c(CN2CCN(/C(=C/[N+](=O)[O-])N3CCCC3)CC2)c(-c2ccccc2)nc2ccccc12)c1ccccc1 [Example 12, 3-[4-(2-Nitro-1-pyrrolidin-1-yl-vinyl)-piperazin-1-ylmethyl]-2-phenyl-quinoline-4-carboxylic acid ((S)-1-phenyl-ethyl)-amide] | 164 to 165 °C |
| C[C@H](NC(=O)c1c(CN2CCN(CCC(=O)O)CC2)c(-c2ccccc2)nc2ccccc12)C1CCCCC1 [Example 18, 3-{4-[4-((S)-1-Cyclohexyl-ethylcarbamoyl)-2-phenyl-quinolin-3-ylmethyl]-piperazin-1-yl}-propionic acid] | 192 to 195 °C |
| CCOC(=O)C1CCCN(/C(=C\[N+](=O)[O-])N2CCN(Cc3c(-c4ccccc4)nc4ccccc4c3C(=O)N[C@@H](C)c3ccccc3)CC2)C1 (stereo partly drawn) [Example 15, 1-(2-Nitro-1-{4-[2-phenyl-4-((S)-1-phenyl-ethylcarbamoyl)-quinolin-3-ylmethyl]-piperazin-1-yl}-vinyl)-piperidine-3-carboxylic acid ethyl ester] | 120 to 121 °C |
| CC[C@H](NC(=O)c1c(CN2CCNC(=O)C2)c(-c2ccccc2)nc2ccccc12)c1ccccc1 [Example 40, 3-(3-Oxo-piperazin-1-ylmethyl)-2-phenyl-quinoline-4-carboxylic acid((S)-1-phenyl-propyl)-amide] | 160 °C |
| C[C@H](NC(=O)c1c(CN2CCN(CCS(C)(=O)=O)CC2)c(-c2ccccc2)nc2ccccc12)C1CCCCC1 [Example 21, 3-[4-(2-Methanesulfonyl-ethyl)-piperazin-1-ylmethyl]-2-phenyl-quinoline-4-carboxylic acid ((S)-1-cyclohexyl-ethyl)-amide] | 120 to 121 °C |
| C[C@H](NC(=O)c1c(CN2CCN(CC(Cc3ccccc3)C(=O)O)CC2)c(-c2ccccc2)nc2ccccc12)C1CCCCC1 (mixture of isomers) [Example 17, 2-Benzyl-3-{4-[4-((S)-1-cyclohexyl-ethylcarbamoyl)-2-phenyl-quinolin-3-ylmethyl]-piperazin-1-yl}-propionic acid] | 136 °C |

Other lines, results leading:

| melting point | SMILES |
| --- | --- |
| 251 °C | C[C@H](NC(=O)c1c(CN2CC(=O)NCC2=O)c(-c2ccccc2)nc2ccccc12)C1CCCCC1 [Example 31, 3-(2,5-Dioxo-piperazin-1-ylmethyl)-2-phenyl-quinoline-4-carboxylic acid ((S)1-cyclohexylethyl)-amide] |
| 225 to 230 °C | C[C@H](NC(=O)c1c(CN2CCNC(=O)C2)c(-c2cccs2)nc2ccccc12)C1CCCCC1 [Example 41, 3-(3-Oxo-piperazin-1-ylmethyl)-2-thiophen-2-yl-quinoline-4-carboxylic acid ((S)-1-cyclohexylethyl)-amide] |
| 165 °C | C[C@H](NC(=O)c1c(CN2CCNC(=O)C2)c(-c2ccccc2)nc2c(F)cccc12)C1CCCCC1 [Example 39, 8-Fluoro-3-(3-oxo-piperazin-1-ylmethyl)-2-phenylquinoline-4-carboxylic acid ((S)-1-cyclohexyl-ethyl)-amide] |
| 118 to 120 °C | C[C@@H](NC(=O)c1c(CN2CCNCC2)c(-c2ccccc2)nc2ccccc12)C1CCCCC1 [Example 5, 2-Phenyl-3-piperazin-1-ylmethyl-quinoline-4-carboxylic acid((R)-1-cyclohexyl-ethyl)-amide] |
| 124 °C | C[C@H](NC(=O)c1c(CN2CC(=O)NC(=O)C2)c(-c2ccccc2)nc2ccccc12)C1CCCCC1 [Example 29, 3-(3,5-Dioxopiperazin-1-ylmethyl)-2-phenylquinoline-4-carboxylic acid ((S)-1-cyclohexylethyl)-amide] |
| 167 to 169 °C | C[C@H](NC(=O)c1c(CN2CCNC(=O)C2)c(-c2ccccc2F)nc2ccccc12)C1CCCCC1 [Example 46, 2-(2-Fluorophenyl)-3-(3-oxopiperazin-1-ylmethyl)-quinoline-4-carboxylic acid ((S)-1-cyclohexyl-ethyl)-amide] |
| 163 to 165 °C | C[C@H](NC(=O)c1c(CN2CCNC(=O)C2)c(-c2ccccc2)nc2cc(F)ccc12)C1CCCCC1 [Example 35, 7-Fluoro-3-(3-oxopiperazin-1-ylmethyl)-2-phenylquinoline-4-carboxylic acid ((S)-1-cyclohexyl-ethyl)-amide] |
| 230 °C | C[C@H](NC(=O)c1c(CN2CCNC(=O)C2)c(-c2ccccc2)nc2ccc(F)cc12)C1CCCCC1 [Example 32, 6-Fluoro-3-(3-oxo-piperazin-1-ylmethyl)-2-phenyl-quinoline-4-carboxylic acid ((S)-1-cyclohexyl-ethyl)-amide] |
| 214 to 217 °C | C[C@H](NC(=O)c1c(CN2CCNC(=O)C2)c(-c2ccc(C(F)(F)F)cc2)nc2ccccc12)C1CCCCC1 [Example 45, 3-(3-Oxopiperazin-1-ylmethyl)-2-(4-trifluoromethylphenyl)quinoline-4-carboxylic acid ((S)-1-cyclohexylethyl)-amide] |
| 150 °C | CCCN1CCN(Cc2c(-c3ccccc3)nc3ccccc3c2C(=O)N[C@@H](C)C2CCCCC2)CC1=O [Example 36, 3-(3-Oxo-4-propyl-piperazin-1-ylmethyl)-2-phenyl-quinoline-4-carboxylic acid ((S)-1-cyclohexyl-ethyl)-amide] |
| 144 to 145 °C | C[C@H](NC(=O)c1c(CN2CCNC(=O)C2)c(-c2ccccc2)nc2cc3c(cc12)OCCO3)C1CCCCC1 [Example 38, 8-(3-Oxo-piperazin-1-ylmethyl)-7-phenyl-2,3-dihydro-[1,4]dioxino[2,3-g]quinoline-9-carboxylic acid ((S)-1-cyclohexyl-ethyl)-amide] |
